Source: patent US7138361B2, “Herbicidal heterocycles” (E. I. du Pont de Nemours and Company, priority 2000, dated 2006)

Columns and labels:
Format in all cases: in vivo
[1] = tested on: Surinam grass (Brachiaria decumbens); experiment: Test B postemergence; settings: 13 to 15 days
Method in brief: (§1)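 Pre: seeded pots sprayed, chemical in non-phytotoxic solvent/surfactant mix. Post: plants 2–18 cm, 1–4 leaf, same formulation. Greenhouse 13–15 d; visual % control vs untreated, 0–100 scale.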

[2] = tested on: barnyardgrass (Echinochloa crus-galli); experiment: Test B postemergence; settings: 13 to 15 days
Method in brief: as §1

[3] = tested on: blackgrass (Alopecurus myosuroides); experiment: Test B postemergence; settings: 13 to 15 days
Method in brief: as §1

[4] = tested on: cocklebur (Xanthium strumarium); experiment: Test B postemergence; settings: 13 to 15 days
Method in brief: as §1

corn (Zea mays) [5] = experiment: Test B postemergence; settings: 13 to 15 days
Method in brief: as §1

[6] = tested on: crabgrass (Digitaria sanguinalis); experiment: Test B postemergence; settings: 13 to 15 days
Method in brief: as §1

[7] = tested on: giant foxtail (Setaria faberii); experiment: Test B postemergence; settings: 13 to 15 days
Method in brief: as §1

[8] = tested on: lambsquarters (Chenopodium album); experiment: Test B postemergence; settings: 13 to 15 days
Method in brief: as §1

[9] = tested on: morning glory (Ipomoea hederacea); experiment: Test B postemergence; settings: 13 to 15 days
Method in brief: as §1

[10] = tested on: pigweed (Amaranthus retroflexus); experiment: Test B postemergence; settings: 13 to 15 days
Method in brief: as §1

[11] = tested on: velvetleaf (Abutilon theophrasti); experiment: Test B postemergence; settings: 13 to 15 days
Method in brief: as §1

[12] = tested on: wheat (Triticum aestivum); experiment: Test B postemergence; settings: 13 to 15 days
Method in brief: as §1

wild oat (Avena fatua) = experiment: Test B postemergence; settings: 13 to 15 days
Method in brief: as §1

[13] = tested on: Surinam grass (Brachiaria decumbens); experiment: Test B preemergence; settings: scale 0 to 100, 0 no effect, 100 complete control
Method in brief: as §1

[14] = tested on: barnyardgrass (Echinochloa crus-galli); experiment: Test B preemergence; settings: scale 0 to 100, 0 no effect, 100 complete control
Method in brief: as §1

[15] = tested on: cocklebur (Xanthium strumarium); experiment: Test B preemergence; settings: scale 0 to 100, 0 no effect, 100 complete control
Method in brief: as §1

corn (Zea mays) [16] = experiment: Test B preemergence; settings: scale 0 to 100, 0 no effect, 100 complete control
Method in brief: as §1

[17] = tested on: crabgrass (Digitaria sanguinalis); experiment: Test B preemergence; settings: scale 0 to 100, 0 no effect, 100 complete control
Method in brief: as §1

[18] = tested on: giant foxtail (Setaria faberii); experiment: Test B preemergence; settings: scale 0 to 100, 0 no effect, 100 complete control
Method in brief: as §1

[19] = tested on: lambsquarters (Chenopodium album); experiment: Test B preemergence; settings: scale 0 to 100, 0 no effect, 100 complete control
Method in brief: as §1

[20] = tested on: morning glory (Ipomoea hederacea); experiment: Test B preemergence; settings: scale 0 to 100, 0 no effect, 100 complete control
Method in brief: as §1

[21] = tested on: pigweed (Amaranthus retroflexus); experiment: Test B preemergence; settings: scale 0 to 100, 0 no effect, 100 complete control
Method in brief: as §1

rice (Oryza saliva) [22] = experiment: Test B preemergence; settings: scale 0 to 100, 0 no effect, 100 complete control
Method in brief: as §1

[23] = tested on: velvetleaf (Abutilon theophrasti); experiment: Test B preemergence; settings: scale 0 to 100, 0 no effect, 100 complete control
Method in brief: as §1

[24] = tested on: barnyardgrass (Echinochloa crus-galli); experiment: Test B flooded paddy test; settings: Rate 1000 g/ha, scale of 0 to 100 where 0 is no effect and 100 is complete control, visually evaluated after 13 to 15 days
Method in brief: (§2)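 2-leaf plants, flooded paddy; greenhouse 13–15 d post-treatment; visual rating vs controls, 0–100 scale (0 = no effect, 100 = complete control); dash = no result.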

[25] = tested on: duck salad (Heteranthera limosa); experiment: Test B flooded paddy test; settings: Rate 1000 g/ha, scale of 0 to 100 where 0 is no effect and 100 is complete control, visually evaluated after 13 to 15 days
Method in brief: as §2

rice (Oryza saliva) [26] = experiment: Test B flooded paddy test; settings: Rate 1000 g/ha, scale of 0 to 100 where 0 is no effect and 100 is complete control, visually evaluated after 13 to 15 days
Method in brief: as §2

[27] = tested on: smallflower flatsedge (Cyperus difformis); experiment: Test B flooded paddy test; settings: Rate 1000 g/ha, scale of 0 to 100 where 0 is no effect and 100 is complete control, visually evaluated after 13 to 15 days
Method in brief: as §2

[28] = tested on: barnyardgrass (Echinochloa crus-galli); experiment: Test C flooded paddy test; settings: for Barnyardgrass plant response rating: Flooded Paddy, scale 0 to 100, 0 no effect, 100 complete control; for Plant response rating, Barnyardgrass: flooded paddy test, scale 0 to 100 (0 no effect, 100 complete control)
Method in brief: (§3)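 2-leaf-stage plants, flooded paddy; treated; greenhouse 12–14 days; compared with controls by eye; rated 0–100 (0 none, 100 complete control).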

[29] = tested on: duck salad (Heteranthera limosa); experiment: Test C flooded paddy test; settings: for Ducksalad plant response rating: Flooded Paddy, scale 0 to 100, 0 no effect, 100 complete control; for Plant response rating, Ducksalad: flooded paddy test, scale 0 to 100 (0 no effect, 100 complete control)
Method in brief: as §3

rice (Oryza saliva) [30] = experiment: Test C flooded paddy test; settings: for Rice plant response rating: Flooded Paddy, scale 0 to 100, 0 no effect, 100 complete control; for Plant response rating, Rice: flooded paddy test, scale 0 to 100 (0 no effect, 100 complete control)
Method in brief: as §3

[31] = tested on: smallflower flatsedge (Cyperus difformis); experiment: Test C flooded paddy test; settings: for Flatsedge plant response rating: Flooded Paddy, scale 0 to 100, 0 no effect, 100 complete control; for Plant response rating, Flatsedge: flooded paddy test, scale 0 to 100 (0 no effect, 100 complete control)
Method in brief: as §3

[32] = Rate 125 g/ha, scale 0 (no effect) to 100 (complete control)
[33] = Rate 500 g/ha, scale 0 to 100, 0 is no effect, 100 is complete control

CC(C)c1ccn(C2SCN(c3cccc(C(F)(F)F)c3)C2=O)n1 (centres unmarked) [Compound 23]
Plant response rating, Surinam grass [1, 32]: 20 | Plant response rating, Surinam grass [1, 33]: 20 | Plant response rating, Barnyardgrass [2, 32]: 20 | Plant response rating, Barnyardgrass [2, 33]: 90 | Plant response rating, Blackgrass [3, 32]: 0 | Plant response rating, Blackgrass [3, 33]: 20 | Plant response rating, Cocklebur [4, 32]: 40 | Plant response rating, Cocklebur [4, 33]: 80 | Plant response rating, Corn (corn (Zea mays) [5]; [32]): 20 | Plant response rating, Corn (corn (Zea mays) [5]; [33]): 50 | Plant response rating, Crabgrass [6, 32]: 20 | Plant response rating, Crabgrass [6, 33]: 40 | Plant response rating, Foxtail, Giant [7, 32]: 20 | Plant response rating, Foxtail, Giant [7, 33]: 80 | Plant response rating, Lambsquarters [8, 32]: 80 | Plant response rating, Lambsquarters [8, 33]: 100 | Plant response rating, Morningglory [9, 32]: 20 | Plant response rating, Morningglory [9, 33]: 80 | Plant response rating, Pigweed [10, 32]: 70 | Plant response rating, Pigweed [10, 33]: 100 | Plant response rating, Velvetleaf [11, 32]: 20 | Plant response rating, Velvetleaf [11, 33]: 30 | Plant response rating, Wheat [12, 32]: 0 | Plant response rating, Wheat [12, 33]: 0 | Plant response rating, Wild Oat (wild oat (Avena fatua); [32]): 0 | Plant response rating, Wild Oat (wild oat (Avena fatua); [33]): 0 | Plant response rating, Surinam grass ([13]; Preemergence, Rate 500 g/ha): 20 | Plant response rating, Surinam grass ([13]; preemergence, Rate 125 g/ha): 0 | Plant response rating, Barnyardgrass ([14]; Preemergence, Rate 500 g/ha): 100 | Plant response rating, Barnyardgrass ([14]; preemergence, Rate 125 g/ha): 0 | Plant response rating, Cocklebur ([15]; Preemergence, Rate 500 g/ha): 20 | Plant response rating, Cocklebur ([15]; preemergence, Rate 125 g/ha): 0 | Plant response rating, Corn (corn (Zea mays) [16]; Preemergence, Rate 500 g/ha): 0 | Plant response rating, Corn (corn (Zea mays) [16]; preemergence, Rate 125 g/ha): 0 | Plant response rating, Crabgrass ([17]; Preemergence, Rate 500 g/ha): 100 | Plant response rating, Crabgrass ([17]; preemergence, Rate 125 g/ha): 70 | Plant response rating, Foxtail, Giant ([18]; Preemergence, Rate 500 g/ha): 50 | Plant response rating, Foxtail, Giant ([18]; preemergence, Rate 125 g/ha): 50 | Plant response rating, Lambsquarters ([19]; Preemergence, Rate 500 g/ha): 100 | Plant response rating, Lambsquarters ([19]; preemergence, Rate 125 g/ha): 100 | Plant response rating, Morningglory ([20]; Preemergence, Rate 500 g/ha): 60 | Plant response rating, Morningglory ([20]; preemergence, Rate 125 g/ha): 0 | Plant response rating, Pigweed ([21]; Preemergence, Rate 500 g/ha): 100 | Plant response rating, Pigweed ([21]; preemergence, Rate 125 g/ha): 100 | Plant response rating, Rice (rice (Oryza saliva) [22]; Preemergence, Rate 500 g/ha): 30 | Plant response rating, Rice (rice (Oryza saliva) [22]; preemergence, Rate 125 g/ha): 0 | Plant response rating, Velvetleaf ([23]; Preemergence, Rate 500 g/ha): 0 | Plant response rating, Velvetleaf ([23]; preemergence, Rate 125 g/ha): 0 | Plant response rating, Barnyardgrass [24]: 0 | Plant response rating, Ducksalad [25]: 100 | Plant response rating, Rice (rice (Oryza saliva) [26]): 0 | Plant response rating, Flatsedge [27]: 0 | Barnyardgrass plant response rating ([28]; Rate 250 g/ha): 100 | Barnyardgrass plant response rating ([28]; Rate 500 g/ha): 100 | Plant response rating, Barnyardgrass ([28]; Rate 62 g/ha): 80 | Plant response rating, Barnyardgrass ([28]; Rate 125 g/ha): 80 | Ducksalad plant response rating ([29]; Rate 250 g/ha): 100 | Ducksalad plant response rating ([29]; Rate 500 g/ha): 100 | Plant response rating, Ducksalad ([29]; Rate 62 g/ha): 50 | Plant response rating, Ducksalad ([29]; Rate 125 g/ha): 80 | Rice plant response rating (rice (Oryza saliva) [30]; Rate 250 g/ha): 70 | Rice plant response rating (rice (Oryza saliva) [30]; Rate 500 g/ha): 100 | Plant response rating, Rice (rice (Oryza saliva) [30]; Rate 62 g/ha): 20 | Plant response rating, Rice (rice (Oryza saliva) [30]; Rate 125 g/ha): 20 | Flatsedge plant response rating ([31]; Rate 250 g/ha): 100 | Flatsedge plant response rating ([31]; Rate 500 g/ha): 100 | Plant response rating, Flatsedge ([31]; Rate 62 g/ha): 100 | Plant response rating, Flatsedge ([31]; Rate 125 g/ha): 100
